Experimental data as given in PMC11446937, “Bacteria from the Amycolatopsis genus associated with a toxic bird secrete protective secondary metabolites” (Nature Communications, 2024).

Columns and labels:
B. licheniformis DSM13 = test: Disc-diffusion antimicrobial assay, ecologically relevant indicator strains; format: cell-based, Bacillus licheniformis; settings: Suppl. Table 16, pure compounds 10 mg/mL in DMSO, 5 µl per disc, control Cip 5 µg/mL (HCl), DMSO control 0, n=1
K. rhizophila DSM11926 = test: as above; format: cell-based, Kocuria rhizophila; settings: Suppl. Table 16, pure compounds 10 mg/mL in DMSO, 5 µl per disc, control Cip 5 µg/mL (HCl), DMSO control 0, n=1
[1] = system: B. thuringiensis DSM104061; test: as above; format: cell-based, Bacillus thuringiensis; settings: Suppl. Table 16, pure compounds 10 mg/mL in DMSO, 5 µl per disc, control Cip 5 µg/mL (HCl), DMSO control 0, n=1
P. monteilii DSM1388 = test: as above; format: cell-based, Pseudomonas monteilii; settings: Suppl. Table 16, pure compounds 10 mg/mL in DMSO, 5 µl per disc, control Cip 5 µg/mL (HCl), DMSO control 0, n=1
C. albicans SC5314 = test: as above; format: cell-based, Candida albicans; settings: Suppl. Table 16, pure compounds 10 mg/mL in DMSO, 5 µl per disc, control Amph B 10 µg/mL (DMSO/H2O), DMSO control 0, n=1
Penicillium notatum JP36 = test: Disc-diffusion antimicrobial assay, clinically relevant indicator strains; format: cell-based; settings: Suppl. Table 17, 1 mg/mL in DMSO, 50 µl (50 µg) per disc, Amph B 10 µg/mL (DMSO/H2O), DMSO solvent control itself 12P, n=3
Protocol: (§1) Disc-diffusion antimicrobial activity assays against clinically relevant indicator strains.
(§2) Pure compounds (1 mg/mL in DMSO or 50% MeOH) were tested for their antimicrobial activity against a variety of bacterial and fungal indicator strains: B. subtilis 6633 (Bs), S. aureus SG511 (Sa1), E. coli SG458 (Ec), P. aeruginosa K799/61 (Pa), S. aureus 134/94 (MRSA) (Sa2), E. faecalis 1528 (VRSA) (Ef), Mycobacterium vaccae 10670 (Mv), Sporobomyces salmonicolor 549 (Ss), C. albicans C.A. (Ca), and Penicillium notatum JP36 (Pn). On each disc, 50 µl compound solution (50 µg) were applied. Antimicrobial activity was determined by measuring the inhibition zone surrounding the disc in mm (n=3).
(§3) Bs: B. subtilis 663, Sa1: S. aureus SG511, Ec: E. coli SG458, Pa: P. aeruginosa K799/61, Sa2: S. aureus 134/94 (MRSA), Ef: E. faecalis 1528 (VRSA), Mv: M. vaccae 10670, Ss: S. salmonicolor 549, Ca: C. albicans C.A., Pn: P. notatum JP36. P: colonies in the inhibition zone, p: single colonies in the inhibition zone. A: no to low inhibition, n.t.: not tested.
(§4) B. subtilis 663, Sa1: S. aureus SG511, Ec: E. coli SG458, Ca: C. albicans C.A., P: colonies in the inhibition zone, […]

[2] = system: Sporobomyces salmonicolor 549; test: as above; format: cell-based; settings: Suppl. Table 17, 1 mg/mL in DMSO, 50 µl (50 µg) per disc, Amph B 10 µg/mL (DMSO/H2O), DMSO solvent control itself 13P, n=3
Protocol: as §1, §2, §3, §4

cruzain = test: Fluorimetric protease inhibition assay; format: biochemical, Trypanosoma cruzi; settings: 200 µM, 10 min, mean ± standard deviation, n=3
cathepsin L = test: Fluorimetric protease inhibition assay; format: biochemical; settings: 200 µM, 10 min, mean ± standard deviation, n=3
cathepsin B = test: Fluorimetric protease inhibition assay; format: biochemical; settings: 200 µM, 10 min, mean ± standard deviation, n=3
DENV2 NS2B-NS3 = test: Fluorimetric protease inhibition assay; format: biochemical; settings: 200 µM, 10 min, mean ± standard deviation, n=3
urokinase (uPA) = test: Fluorimetric protease inhibition assay; format: biochemical; settings: 200 µM, 10 min, mean ± standard deviation, n=3
P. aeruginosa K799/61 = settings: Suppl. Table 17; disc diffusion; 1 mg/mL in DMSO, 50 µl (50 µg) per disc; Cip 5 µg/mL (H2O/HCl); DMSO solvent control itself 12P; n=3
rhodesain = settings: 200 µM
SARS-CoV2 Mpro = settings: 200 µM; fluorimetric, 10 min; mean ± standard deviation, n=3
SARS-CoV PLpro = settings: 200 µM; fluorimetric, 10 min; mean ± standard deviation, n=3
ZIKV NS2B-NS3 = settings: 200 µM
sortase A (SrtA) = settings: 200 µM
B. subtilis 6633 = test: Disc-diffusion antimicrobial assay, clinically relevant indicator strains; settings: Suppl. Table 17, 1 mg/mL in DMSO, 50 µl (50 µg) per disc, Cip 5 µg/mL (H2O/HCl), DMSO solvent control itself 12P, n=3
S. aureus SG511 = test: as above; settings: Suppl. Table 17, 1 mg/mL in DMSO, 50 µl (50 µg) per disc, Cip 5 µg/mL (H2O/HCl), DMSO solvent control itself 11P, n=3
E. coli SG458 = test: as above; settings: Suppl. Table 17, 1 mg/mL in DMSO, 50 µl (50 µg) per disc, Cip 5 µg/mL (H2O/HCl), DMSO solvent control itself 12P, n=3
S. aureus 134/94 (MRSA) = test: as above; settings: Suppl. Table 17, 1 mg/mL in DMSO, 50 µl (50 µg) per disc, Cip 5 µg/mL (H2O/HCl), DMSO solvent control 0, n=3
[3] = system: Mycobacterium vaccae 10670; test: as above; settings: Suppl. Table 17, 1 mg/mL in DMSO, 50 µl (50 µg) per disc, Cip 5 µg/mL (H2O/HCl), DMSO solvent control itself 11P, n=3
C. albicans C.A. = test: as above; format: cell-based; settings: Suppl. Table 17; disc diffusion; 1 mg/mL in DMSO, 50 µl (50 µg) per disc; Amph B 10 µg/mL (DMSO/H2O); DMSO solvent control 0; n=3
Protocol: as §1, §2, §3, §4

Molecule	inhibition zone, Bl (B. licheniformis DSM13)	inhibition zone, Kr (K. rhizophila DSM11926)	inhibition zone, Bt [1]	inhibition zone, Pm (P. monteilii DSM1388)	inhibition zone, Ca2 (C. albicans SC5314)	inhibition zone, Pn (Penicillium notatum JP36)	inhibition zone, Ss [2]	Protease inhibition rate, Cruzain (cruzain)	Protease inhibition rate, Cathepsin L (cathepsin L)	Protease inhibition rate, Cathepsin B (cathepsin B)	Protease inhibition rate, DENV2 (DENV2 NS2B-NS3)	Protease inhibition rate, uPA (urokinase (uPA))	Protease inhibition rate, Rhodesain (rhodesain)	Protease inhibition rate, Mpro (SARS-CoV2) (SARS-CoV2 Mpro)	Protease inhibition rate, PLpro (SARS-CoV) (SARS-CoV PLpro)	Protease inhibition rate, SrtA (sortase A (SrtA))	inhibition zone, Bs (B. subtilis 6633)	inhibition zone, Sa1 (S. aureus SG511)	inhibition zone, Ec (E. coli SG458)	inhibition zone, Sa2 (S. aureus 134/94 (MRSA))	further results
Pachycephalamide A [Compound 1]	0 mm	0 mm	0 mm	0 mm	0 mm	11p	15p	64.85 ± 1.50%	61.88 ± 2.85%	55.19 ± 2.16%	8.57 ± 3.83%	8.32 ± 4.90%	55.29 ± 2.15	12.82 ± 8.66%	1.01 ± 1.74%	12.86 ± 2.35	0 mm	0 mm	0 mm	0 mm	inhibition zone, Pa (P. aeruginosa K799/61): 18P; Protease inhibition rate, ZIKV (ZIKV NS2B-NS3): 7.99 ± 3.53; inhibition zone, Mv [3]: 0 mm
Pachycephalamide B [Compound 2]	0 mm	0 mm	0 mm	0 mm	0 mm	13p	14p	49.62 ± 3.44%	50.42 ± 1.21%	54.94 ± 2.96%	29.25 ± 7.00%	0 ± 0%	47.71 ± 2.73	57.34 ± 9.94%	14.94 ± 1.31%	61.07 ± 4.93	0 mm	0 mm	15P	0 mm	inhibition zone, Ca (C. albicans C.A.): 0 mm; inhibition zone, Pa (P. aeruginosa K799/61): 18P; Protease inhibition rate, ZIKV (ZIKV NS2B-NS3): 29.95 ± 3.36
O=C(O)c1cn(C2CC2)c2cc(N3CCNCC3)c(F)cc2c1=O [Cip, Ciprofloxacin, reference compound]	35 mm	22 mm	28 mm	33 mm																	
Pachycephalamide C [Compound 3]	0 mm	0 mm	0 mm	0 mm	0 mm	13p	22p	63.82 ± 1.43%	62.51 ± 4.09%	56.16 ± 6.18%	9.19 ± 3.06%	0 ± 0%	58.33 ± 1.36	9.25 ± 7.28%	0 ± 0%	14.00 ± 4.62	0 mm	0 mm	15P	0 mm	inhibition zone, Ca (C. albicans C.A.): 0 mm
